Measured values: patent US20220315621A1, “COMPOSITIONS AND METHODS FOR TREATING CNS DISORDERS” (priority 2017, published 2022)

These compounds were tested against TBPS binding (assay: Steroid inhibition of TBPS binding). Conditions: Table II-2; read-out: TBPS IC50 (μm).

| SMILES | IC50 [µM] |
| --- | --- |
| Cc1nnn(CC(=O)[C@H]2CC[C@H]3[C@@H]4CC[C@@H]5CC[C@](C)(O)CC[C@@H]5[C@H]4CC[C@]23C)n1 [II-F12, 1-((1S,3aS,3bR,5aR,8S,10aS,10bR,12aS)-8-hydroxy-8,12a-dimethyloctadecahydrocyclohepta[a]cyclopenta[f]naphthalen-1-yl)-2-(5-methyl-2H-tetrazol-2-yl)ethan-1-one] | 0.1 to 1 |
| C[C@]1(O)C[C@H]2CC[C@@H]3[C@H](CC[C@]4(C)[C@@H](C(=O)Cn5nccn5)CC[C@@H]34)[C@H]2C1 [II-G11, 1-((1S,3aS,3bR,5aR,7S,8aS,8bR,10aS)-7-hydroxy-7,10a-dimethylhexadecahydrodicyclopenta[a,f]naphthalen-1-yl)-2-(2H-1,2,3-triazol-2-yl)ethan-1-one] | 0.1 to 1 |
| Cc1nnnn1CC(=O)[C@H]1CC[C@H]2[C@@H]3CC[C@@H]4CC[C@](C)(O)CC[C@@H]4[C@H]3CC[C@]12C [II-F13, 1-((1S,3aS,3bR,5aR,8S,10aS,10bR,12aS)-8-hydroxy-8,12a-dimethyloctadecahydrocyclohepta[a]cyclopenta[f]naphthalen-1-yl)-2-(5-methyl-1H-tetrazol-1-yl)ethan-1-one] | 1 to 10 |
| Cc1nnnn1CC(=O)[C@H]1CC[C@H]2[C@@H]3CC[C@H]4CC[C@](C)(O)CC[C@]4(C)[C@H]3CC[C@]12C [II-C10, 1-((1S,3aS,3bR,5aS,8S,10aS,10bS,12aS)-8-hydroxy-8,10a,12a-trimethyloctadecahydrocyclohepta[a]cyclopenta[f]naphthalen-1-yl)-2-(5-methyl-1H-tetrazol-1-yl)ethan-1-one] | 0.1 to 1 |
| CC(=O)[C@H]1CC[C@H]2[C@@H]3CC[C@@H]4C[C@](C)(O)CCC[C@@H]4[C@H]3CC[C@]12C [II-E8a, 1-((1S,3aS,3bR,5aR,7R,10aS,10bR,12aS)-7-hydroxy-7,12a-dimethyloctadecahydrocyclohepta[a]cyclopenta[f]naphthalen-1-yl)ethan-1-one] | 0.01 to 0.1 |
| CC(=O)[C@H]1CC[C@H]2[C@@H]3CC[C@H]4C[C@H](O)CCC[C@]4(C)[C@H]3CC[C@]12C [II-B5, 1-((1S,3aS,3bR,5aS,7R,10aS,10bS,12aS)-7-hydroxy-10a,12a-dimethyloctadecahydrocyclohepta[a]cyclopenta[f]naphthalen-1-yl)ethan-1-one] | 0.1 to 1 |
| C[C@]1(O)CC[C@H]2CC[C@@H]3[C@H](CC[C@]4(C)[C@@H](C(=O)Cn5cc(C#N)cn5)CC[C@@H]34)[C@H]2CC1 [II-F11, 1-(2-((1S,3aS,3bR,5aR,8S,10aS,10bR,12aS)-8-hydroxy-8,12a-dimethyloctadecahydrocyclohepta[a]cyclopenta[f]naphthalen-1-yl)-2-oxoethyl)-1H-pyrazole-4-carbonitrile] | 0.1 to 1 |
| C[C@]1(O)C[C@H]2CC[C@@H]3[C@H](CC[C@]4(C)[C@@H](C(=O)Cn5cc(C#N)cn5)CC[C@@H]34)[C@H]2C1 [II-G10] | 0.1 to 1 |
| Cc1nnn(CC(=O)[C@H]2CC[C@H]3[C@@H]4CC[C@H]5CC[C@](C)(O)CC[C@]5(C)[C@H]4CC[C@]23C)n1 [II-C11, 1-((1S,3aS,3bR,5aS,8S,10aS,10bS,12aS)-8-hydroxy-8,10a,12a-trimethyloctadecahydrocyclohepta[a]cyclopenta[f]naphthalen-1-yl)-2-(5-methyl-2H-tetrazol-2-yl)ethan-1-one] | 0.01 to 0.1 |
| C[C@@]1(O)CC[C@@H]2CC[C@@H]3[C@H](CC[C@]4(C)[C@@H](C(=O)Cn5cc(C#N)cn5)CC[C@@H]34)[C@@]2(C)CC1 [II-C8, 1-(2-((1S,3aS,3bR,5aS,8R,10aS,10bS,12aS)-8-hydroxy-8,10a,12a-trimethyloctadecahydrocyclohepta[a]cyclopenta[f]naphthalen-1-yl)-2-oxoethyl)-1H-pyrazole-4-carbonitrile] | 0.1 to 1 |
| Cc1nnnn1CC(=O)[C@H]1CC[C@H]2[C@@H]3CC=C4CC[C@](C)(O)CC[C@]4(C)[C@H]3CC[C@]12C [II-F7, 1-((1S,3aS,3bS,8S,10aR,10bS,12aS)-8-hydroxy-8,10a,12a-trimethyl-1,2,3,3a,3b,4,6,7,8,9,10,10a,10b,11,12,12a-hexadecahydrocyclohepta[a]cyclopenta[f]naphthalen-1-yl)-2-(5-methyl-1H-tetrazol-1-yl)ethan-1-one] | 0.01 to 0.1 |
| C[C@]1(O)C[C@H]2CC[C@@H]3[C@H](CC[C@]4(C)[C@@H](C(=O)Cn5ccnn5)CC[C@@H]34)[C@H]2C1 [II-G12, 1-((1S,3aS,3bR,5aR,7S,8aS,8bR,10aS)-7-hydroxy-7,10a-dimethylhexadecahydrodicyclopenta[a,f]naphthalen-1-yl)-2-(1H-1,2,3-triazol-1-yl)ethan-1-one] | 0.1 to 1 |
| CC(=O)[C@H]1CC[C@H]2[C@@H]3CC[C@H]4C[C@](C)(O)CCC[C@]4(C)[C@H]3CC[C@]12C [II-D3a, 1-((1S,3aS,3bR,5aS,7R,10aS,10bS,12aS)-7-hydroxy-7,10a,12a-trimethyloctadecahydrocyclohepta[a]cyclopenta[f]naphthalen-1-yl)ethan-1-one] | 1 to 10 |
| C[C@]12CC[C@@H]3[C@H]4CC[C@@](C)(O)[C@@H]4CC[C@H]3[C@@H]1CC[C@@H]2C(=O)Cn1cc(C#N)cn1 [II-H13, 1-(2-((1S,3aS,3bR,5aR,6R,8aR,8bS,10aS)-6-hydroxy-6,10a-dimethylhexadecahydrodicyclopenta[a,f]naphthalen-1-yl)-2-oxoethyl)-1H-pyrazole-4-carbonitrile] | 1 to 10 |
| C[C@]1(O)CCC2=CC[C@H]3[C@@H]4CC[C@H](C(=O)Cn5cc(C#N)cn5)[C@@]4(C)CC[C@@H]3[C@@]2(C)CC1 [II-F3, 1-(2-((1S,3aS,3bS,8S,10aR,10bS,12aS)-8-hydroxy-8,10a,12a-trimethyl-1,2,3,3a,3b,4,6,7,8,9,10,10a,10b,11,12,12a-hexadecahydrocyclohepta[a]cyclopenta[f]naphthalen-1-yl)-2-oxoethyl)-1H-pyrazole-4-carbonitrile] | < 0.01 |
| CC(=O)[C@H]1CC[C@H]2[C@@H]3CC[C@@H]4[C@H](CC[C@@]4(C)O)[C@H]3CC[C@]12C [II-H11, 1-((1S,3aS,3bR,5aR,6R,8aR,8bS,10aS)-6-hydroxy-6,10a-dimethylhexadecahydrodicyclopenta[a,f]naphthalen-1-yl)ethan-1-one] | 1 to 10 |
| COC[C@]1(O)C[C@H]2CC[C@@H]3[C@H](CC[C@]4(C)[C@@H](C(C)=O)CC[C@@H]34)[C@H]2C1 [II-J9, 1-((1S,3aS,3bR,5aR,7S,8aS,8bR,10aS)-7-hydroxy-7-(methoxymethyl)-10a-methylhexadecahydrodicyclopenta[a,f]naphthalen-l-yl)ethan-1-one] | 0.1 to 1 |
| Cc1nnn(CC(=O)[C@H]2CC[C@H]3[C@@H]4CC=C5CC[C@](C)(O)CC[C@]5(C)[C@H]4CC[C@]23C)n1 [II-F6, 1-((1S,3aS,3bS,8S,10aR,10bS,12aS)-8-hydroxy-8,10a,12a-trimethyl-1,2,3,3a,3b,4,6,7,8,9,10,10a,10b,11,12,12a-hexadecahydrocyclohepta[a]cyclopenta[f]naphthalen-1-yl)-2-(5-methyl-2H-tetrazol-2-yl)ethan-1-one] | 0.01 to 0.1 |
| CC(=O)[C@H]1CC[C@H]2[C@@H]3CC[C@@H]4CC(=O)CCC[C@@H]4[C@H]3CC[C@]12C [II-E7b, (1 S,3aS,3bR,5aR,10aS,10bR,12aS)-1-acetyl-12a-methylhexadecahydrocyclohepta[a]cyclopenta[f]naphthalen-7(1H)-one] | 1 to 10 |
| CC(=O)[C@H]1CC[C@H]2[C@@H]3CC=C4CC[C@@](C)(O)CC[C@]4(C)[C@H]3CC[C@]12C [II-C2b, 1-((1S,3aS,3bS,8R,10aR,10bS,12aS)-8-hydroxy-8,10a,12a-trimethyl-1,2,3,3a,3b,4,6,7,8,9,10,10a,10b,11,12,12a-hexadecahydrocyclohepta[a]cyclopenta[f]naphthalen-1-yl)ethan-1-one] | 1 to 10 |

Same assay, conditions: Table III-1; read-out: TBPS IC50

| SMILES | IC50 [µM] |
| --- | --- |
| CC(=O)[C@H]1CC[C@H]2[C@@H]3CCC[C@H]4C[C@](C)(O)CC[C@@H]4[C@H]3CC[C@]12C [III-A13, 1-((1S,3aS,3bR,6aS,8R,10aS,10bR,12aS)-8-hydroxy-8,12a-dimethyloctadecahydrobenzo[3,4]cyclohepta[1,2-e]inden-1-yl)ethan-1-one] | 1 to 10 |

Same assay, conditions: Table IV-2; read-out: TBPS IC50

| SMILES | IC50 [µM] |
| --- | --- |
| C[C@@]1(O)CC[C@H]2[C@@H](C[C@@H]3[C@@H]2CC[C@]2(C)[C@@H](C(=O)Cn4cc(C#N)cn4)CC[C@@H]32)C1 [IV-B9, 1-(2-((3S,3aS,5aR,5bS,8R,9aS,10aR,10bS)-8-hydroxy-3a,8-dimethylhexadecahydrocyclopenta[a]fluoren-3-yl)-2-oxoethyl)-1H-pyrazole-4-carbonitrile] | 0.01 to 0.1 |
| C[C@@]1(O)CC[C@H]2[C@H](C[C@@H]3[C@@H]2CC[C@]2(C)[C@@H](C(=O)Cn4cc(C#N)cn4)CC[C@@H]32)C1 [IV-A16, 1-(2-((3S,3aS,5aR,5bS,8R,9aR,10aR,10bS)-8-hydroxy-3a,8-dimethylhexadecahydrocyclopenta[a]fluoren-3-yl)-2-oxoethyl)-1H-pyrazole-4-carbonitrile] | 0.01 to 0.1 |

Same assay, conditions: Table V-2; read-out: TBPS IC50

| SMILES | IC50 [µM] |
| --- | --- |
| C[C@@]1(O)CC[C@@]2(C)[C@@H](CC[C@@H]3[C@@H]2CCC[C@]2(C)[C@@H](C(=O)Cn4cc(C#N)cn4)CC[C@@H]32)C1 [V-A10, 1-(2-((3aS,4S,6aS,6bR,8aS,10R,12aS,12bS)-10-hydroxy-3a,10,12a-trimethyloctadecahydronaphtho[2,1-e]azulen-4-yl)-2-oxoethyl)-1H-pyrazole-4-carbonitrile] | 0.1 to 1 |
| CC(=O)[C@H]1CC[C@H]2[C@@H]3CC[C@H]4C[C@](C)(O)CC[C@]4(C)[C@H]3CCC[C@]12C [V-A8, 1-((3aS,4S,6aS,6bR,8aS,10R,12aS,12bS)-10-hydroxy-3a,10,12a-trimethyloctadecahydronaphtho[2,1-e]azulen-4-yl)ethan-1-one] | 0.1 to 1 |
